Measurements as given in patent US11098044B2, “Imidazopyridinyl compounds and use thereof for treatment of neurodegenerative disorders” (1ST Biotherapeutics, Inc., priority 2019, dated 2021).
pIC50: −log10 of the molar value.

Legend:
Format in all cases: biochemical
LRRK2 G2019S = LRRK2 G2019S (Homo sapiens (Human), UniProt Q5S007, G2019S); test: LRRK2 G2019S Kinase Assay (Adapta); settings: 100 μM ATP, LRRKtide substrate; read-out: LRRK2_G2019S IC50
In short: (§1)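 Adapta TR-FRET kinase assay with LRRKtide substrate in 50 mM Tris pH 8.5, 0.01% BRIJ-35, 10 mM MgCl2, 1 mM EGTA, 0.02% NaN3. ATP at Km: 70 μM for WT LRRK2, 100 μM for G2019S. Reaction 1 h at room temperature; after 60 min with detection mix, 665/615 nm emission ratio read.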

LRRK2 (WT) = LRRK2 (WT) (Homo sapiens (Human), UniProt Q5S007); test: LRRK2 Kinase Assay (Adapta); settings: 70 μM ATP, LRRKtide substrate
In short: as §1

[1] = target: c-Abl (His-tagged recombinant human ABL1) (Homo sapiens (Human), UniProt P00519); test: c-abl Kinase Assay (ADP-Glo); settings: ATP (25 μM), Abltide substrate
In short: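 His-tagged human ABL1 (0.25 ng/μl), Abltide (0.01 μg/μl) and ATP (25 μM), each at its added concentration, reacted with compound (0.5% DMSO) for 30 min at 30 °C. Buffer was 50 mM HEPES pH 7.5, 10 mM MgCl2, 1 mM EGTA, 0.05% BSA, 0.01% Triton X-100, 2 mM DTT. ADP formed was read by ADP-Glo luminescence, and IC50 was fitted from percent inhibition across concentrations.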

Sequence of c-Abl (His-tagged recombinant human ABL1) (P00519 whole entry): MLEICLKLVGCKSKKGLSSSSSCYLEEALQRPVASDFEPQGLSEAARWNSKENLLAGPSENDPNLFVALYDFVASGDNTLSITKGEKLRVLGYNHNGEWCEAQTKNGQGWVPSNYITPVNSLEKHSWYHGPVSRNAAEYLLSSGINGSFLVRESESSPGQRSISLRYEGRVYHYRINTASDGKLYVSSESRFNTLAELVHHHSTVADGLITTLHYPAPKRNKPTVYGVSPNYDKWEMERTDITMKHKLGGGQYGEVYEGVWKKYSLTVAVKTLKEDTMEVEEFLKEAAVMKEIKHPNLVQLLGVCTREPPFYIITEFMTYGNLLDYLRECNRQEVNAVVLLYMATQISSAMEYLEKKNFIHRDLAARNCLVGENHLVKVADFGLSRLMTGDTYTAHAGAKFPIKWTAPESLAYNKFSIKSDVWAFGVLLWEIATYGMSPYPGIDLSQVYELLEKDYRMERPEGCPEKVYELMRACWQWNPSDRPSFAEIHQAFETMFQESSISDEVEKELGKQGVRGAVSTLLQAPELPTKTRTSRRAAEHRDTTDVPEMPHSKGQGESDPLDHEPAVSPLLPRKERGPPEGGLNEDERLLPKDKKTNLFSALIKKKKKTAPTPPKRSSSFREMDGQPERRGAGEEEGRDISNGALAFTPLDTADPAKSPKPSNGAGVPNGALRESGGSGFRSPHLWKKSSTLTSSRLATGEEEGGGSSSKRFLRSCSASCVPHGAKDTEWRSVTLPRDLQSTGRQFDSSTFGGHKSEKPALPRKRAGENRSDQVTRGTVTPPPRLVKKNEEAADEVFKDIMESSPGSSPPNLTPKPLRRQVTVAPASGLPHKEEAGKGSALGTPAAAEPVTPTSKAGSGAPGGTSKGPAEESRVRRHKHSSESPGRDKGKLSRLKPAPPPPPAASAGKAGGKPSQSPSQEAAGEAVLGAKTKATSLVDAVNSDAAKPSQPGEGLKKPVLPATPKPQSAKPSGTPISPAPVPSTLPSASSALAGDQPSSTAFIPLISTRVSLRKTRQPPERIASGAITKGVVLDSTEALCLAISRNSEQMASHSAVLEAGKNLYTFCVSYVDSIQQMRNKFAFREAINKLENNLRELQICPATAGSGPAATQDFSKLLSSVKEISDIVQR
Sequence of LRRK2 (WT) (Q5S007 whole entry): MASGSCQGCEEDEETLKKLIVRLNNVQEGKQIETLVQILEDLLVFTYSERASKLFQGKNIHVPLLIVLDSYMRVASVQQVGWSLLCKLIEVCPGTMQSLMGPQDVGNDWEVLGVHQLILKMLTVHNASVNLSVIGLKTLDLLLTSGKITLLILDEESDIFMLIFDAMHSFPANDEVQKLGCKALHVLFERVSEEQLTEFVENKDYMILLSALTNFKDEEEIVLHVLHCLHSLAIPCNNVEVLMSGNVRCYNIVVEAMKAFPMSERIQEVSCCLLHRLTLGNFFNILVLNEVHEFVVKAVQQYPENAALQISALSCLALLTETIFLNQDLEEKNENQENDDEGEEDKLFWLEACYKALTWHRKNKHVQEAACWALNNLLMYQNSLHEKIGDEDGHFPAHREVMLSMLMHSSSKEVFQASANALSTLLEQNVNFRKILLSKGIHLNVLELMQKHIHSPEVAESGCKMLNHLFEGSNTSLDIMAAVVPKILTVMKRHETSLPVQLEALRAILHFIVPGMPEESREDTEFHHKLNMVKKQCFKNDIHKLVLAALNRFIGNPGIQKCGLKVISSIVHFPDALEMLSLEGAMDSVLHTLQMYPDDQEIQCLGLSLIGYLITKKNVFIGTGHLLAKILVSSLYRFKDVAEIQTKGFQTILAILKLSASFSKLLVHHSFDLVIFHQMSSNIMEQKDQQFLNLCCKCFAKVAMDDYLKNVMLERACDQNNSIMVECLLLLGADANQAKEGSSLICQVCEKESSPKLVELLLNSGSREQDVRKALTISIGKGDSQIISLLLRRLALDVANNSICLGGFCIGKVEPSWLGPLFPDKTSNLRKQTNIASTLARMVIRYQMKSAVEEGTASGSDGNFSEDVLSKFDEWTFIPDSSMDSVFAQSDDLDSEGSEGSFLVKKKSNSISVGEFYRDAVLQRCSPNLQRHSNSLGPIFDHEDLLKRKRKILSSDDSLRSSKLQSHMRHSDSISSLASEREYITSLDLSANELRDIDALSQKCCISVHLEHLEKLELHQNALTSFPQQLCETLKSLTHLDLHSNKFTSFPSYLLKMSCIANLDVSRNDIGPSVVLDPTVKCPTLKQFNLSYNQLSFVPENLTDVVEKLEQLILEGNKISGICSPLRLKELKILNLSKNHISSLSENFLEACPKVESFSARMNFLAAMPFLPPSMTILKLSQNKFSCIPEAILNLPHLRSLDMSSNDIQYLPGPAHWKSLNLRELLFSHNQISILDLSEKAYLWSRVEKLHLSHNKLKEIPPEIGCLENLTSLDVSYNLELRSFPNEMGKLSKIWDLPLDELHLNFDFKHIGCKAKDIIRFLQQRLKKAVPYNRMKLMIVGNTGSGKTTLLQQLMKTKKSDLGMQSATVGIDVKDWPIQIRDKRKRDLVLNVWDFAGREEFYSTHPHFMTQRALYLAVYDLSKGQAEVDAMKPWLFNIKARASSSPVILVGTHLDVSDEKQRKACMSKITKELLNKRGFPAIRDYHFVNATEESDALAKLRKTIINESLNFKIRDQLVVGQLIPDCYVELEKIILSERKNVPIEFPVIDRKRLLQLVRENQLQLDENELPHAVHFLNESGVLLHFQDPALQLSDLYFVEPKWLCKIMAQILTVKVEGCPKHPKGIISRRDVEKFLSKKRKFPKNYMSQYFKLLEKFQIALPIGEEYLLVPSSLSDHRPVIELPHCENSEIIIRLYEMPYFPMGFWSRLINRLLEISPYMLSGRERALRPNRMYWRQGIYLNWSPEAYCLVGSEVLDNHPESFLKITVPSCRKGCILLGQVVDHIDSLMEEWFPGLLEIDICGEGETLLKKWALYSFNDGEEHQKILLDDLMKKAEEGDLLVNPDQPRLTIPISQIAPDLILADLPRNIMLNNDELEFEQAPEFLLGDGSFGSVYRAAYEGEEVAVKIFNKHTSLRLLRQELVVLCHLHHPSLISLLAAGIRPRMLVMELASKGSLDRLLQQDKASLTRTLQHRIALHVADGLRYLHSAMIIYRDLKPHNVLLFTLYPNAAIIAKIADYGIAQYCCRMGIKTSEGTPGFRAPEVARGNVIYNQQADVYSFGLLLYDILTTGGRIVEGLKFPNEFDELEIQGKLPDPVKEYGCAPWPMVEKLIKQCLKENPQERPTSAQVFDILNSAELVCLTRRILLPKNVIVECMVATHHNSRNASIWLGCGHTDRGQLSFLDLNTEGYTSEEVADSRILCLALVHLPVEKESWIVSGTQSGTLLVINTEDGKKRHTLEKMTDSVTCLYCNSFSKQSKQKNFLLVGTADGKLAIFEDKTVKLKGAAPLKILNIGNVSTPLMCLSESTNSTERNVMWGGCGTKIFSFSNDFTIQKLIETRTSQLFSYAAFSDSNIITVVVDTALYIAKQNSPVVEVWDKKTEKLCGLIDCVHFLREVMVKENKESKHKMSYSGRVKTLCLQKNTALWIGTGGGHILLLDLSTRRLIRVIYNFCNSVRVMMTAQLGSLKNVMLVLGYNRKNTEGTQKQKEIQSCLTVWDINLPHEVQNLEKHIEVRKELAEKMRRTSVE
Sequence of LRRK2 G2019S (Q5S007 whole entry G2019S): as the sequence (Q5S007 whole entry) above, with G2019S counted along it

| pIC50 (LRRK2 G2019S) | pIC50 (LRRK2 (WT)) | pIC50 [1] | Structure (SMILES) |
| --- | --- | --- | --- |
| 6.00 to 7.00 | 6.00 to 7.00 | > 8.00 | Cc1ccc(-n2cccn2)cc1-c1ccc2nc(NC(=O)[C@@H]3C[C@@H]3F)cn2c1 [Example 56, (1S,2S)-2-fluoro-N-(6-(2-methyl-5-(1H-pyrazol-1-yl)phenyl)imidazo[1,2-a]pyridin-2-yl)cyclopropane-1-carboxamide] |
| < 6.00 | < 6.00 | > 8.00 | O=C(Nc1cn2cc(-c3cccc(F)c3CO)ccc2n1)[C@@H]1C[C@@H]1F [Example 57, (1S,2S)-2-fluoro-N-(6-(3-fluoro-2-(hydroxymethyl)phenyl)imidazo[1,2-a]pyridin-2-yl)cyclopropane-1-carboxamide] |
| 7.00 to 8.00 | 7.00 to 8.00 | > 8.00 | COc1c(F)cccc1-c1ccc2nc(NC(=O)[C@@H]3C[C@@H]3F)cn2c1 [Example 59, (1S,2S)-2-fluoro-N-(6-(3-fluoro-2-methoxyphenyl)imidazo[1,2-a]pyridin-2-yl)cyclopropanecarboxamide] |
| 7.00 to 8.00 | 7.00 to 8.00 | 7.00 to 8.00 | N#Cc1c(F)cccc1-c1ccc2nc(NC(=O)[C@@H]3C[C@@H]3F)cn2c1 [Example 60, (1S,2S)—N-(6-(2-cyano-3-fluorophenyl)imidazo[1,2-a]pyridin-2-yl)-2-fluorocyclopropanecarboxamide] |
| 7.00 to 8.00 | 7.00 to 8.00 | > 8.00 | O=C(Nc1cn2cc(-c3cccc(F)c3Cl)ccc2n1)[C@@H]1C[C@@H]1F [Example 61, (1S,2S)—N-(6-(2-chloro-3-fluorophenyl)imidazo[1,2-a]pyridin-2-yl)-2-fluorocyclopropanecarboxamide] |
| 7.00 to 8.00 | 7.00 to 8.00 | > 8.00 | O=C(Nc1cn2cc(-c3cccc(F)c3F)ccc2n1)[C@@H]1C[C@@H]1F [Example 62, (1S,2S)—N-(6-(2,3-difluorophenyl)imidazo[1,2-a]pyridin-2-yl)-2-fluorocyclopropanecarboxamide] |
| 7.00 to 8.00 | 6.00 to 7.00 | > 8.00 | Cc1ccc2[nH]cc(C)c2c1-c1ccc2nc(NC(=O)[C@@H]3C[C@@H]3F)cn2c1 [Example 63, (1S,2S)—N-(6-(3,5-dimethyl-1H-indol-4-yl)imidazo[1,2-a]pyridin-2-yl)-2-fluorocyclopropanecarboxamide] |
| 6.00 to 7.00 | < 6.00 | > 8.00 | COCc1c(F)cccc1-c1ccc2nc(NC(=O)[C@@H]3C[C@@H]3F)cn2c1 [Example 64, (1S,2S)-2-fluoro-N-(6-(3-fluoro-2-(methoxymethyl)phenyl)imidazo[1,2-a]pyridin-2-yl)cyclopropanecarboxamide] |
| < 6.00 | < 6.00 | 7.00 to 8.00 | O=C(Nc1cn2cc(-c3cccc(F)c3-c3ccco3)ccc2n1)[C@@H]1C[C@@H]1F [Example 65, (1S,2S)-2-fluoro-N-(6-(3-fluoro-2-(furan-2-yl)phenyl)imidazo[1,2-a]pyridin-2-yl)cyclopropanecarboxamide] |
| 7.00 to 8.00 | 6.00 to 7.00 | > 8.00 | CSc1c(F)cccc1-c1ccc2nc(NC(=O)[C@@H]3C[C@@H]3F)cn2c1 [Example 66, (1S,2S)-2-fluoro-N-(6-(3-fluoro-2-(methylthio)phenyl)imidazo[1,2-a]pyridin-2-yl)cyclopropanecarboxamide] |
| 7.00 to 8.00 | 7.00 to 8.00 | 7.00 to 8.00 | Cc1cc(F)ncc1-c1ccc2nc(NC(=O)[C@@H]3C[C@@H]3F)cn2c1 [Example 67, (1S,2S)-2-fluoro-N-(6-(6-fluoro-4-methylpyridin-3-yl)imidazo[1,2-a]pyridin-2-yl)cyclopropanecarboxamide] |
| < 6.00 | < 6.00 | 7.00 to 8.00 | CC(=O)c1c(F)cccc1-c1ccc2nc(NC(=O)[C@@H]3C[C@@H]3F)cn2c1 [Example 68, (1S,2S)—N-(6-(2-acetyl-3-fluorophenyl)imidazo[1,2-a]pyridin-2-yl)-2-fluorocyclopropanecarboxamide] |
| < 6.00 | < 6.00 | 6.00 to 7.00 | Cc1cc(N(C)C)ncc1-c1ccc2nc(NC(=O)[C@@H]3C[C@@H]3F)cn2c1 [Example 69, (1S,2S)—N-(6-(6-(dimethylamino)-4-methylpyridin-3-yl)imidazo[1,2-a]pyridin-2-yl)-2-fluorocyclopropanecarboxamide] |
| 7.00 to 8.00 | 7.00 to 8.00 | > 8.00 | Cc1c(F)cccc1-c1ccc2nc(NC(=O)C3CC3)cn2c1 [Example 70, N-(6-(3-fluoro-2-methylphenyl)imidazo[1,2-a]pyridin-2-yl)cyclopropanecarboxamide] |
| < 6.00 | < 6.00 | < 6.00 | NCc1c(F)cccc1-c1ccc2nc(NC(=O)[C@@H]3C[C@@H]3F)cn2c1 [Example 74, (1S,2S)—N-(6-(2-(aminomethyl)-3-fluorophenyl)imidazo[1,2-a]pyridin-2-yl)-2-fluorocyclopropanecarboxamide] |
| < 6.00 | < 6.00 | 6.00 to 7.00 | CC(=O)NCc1c(F)cccc1-c1ccc2nc(NC(=O)[C@@H]3C[C@@H]3F)cn2c1 [Example 75, (1S,2S)—N-(6-(2-(acetamidomethyl)-3-fluorophenyl)imidazo[1,2-a]pyridin-2-yl)-2-fluorocyclopropanecarboxamide] |
| 7.00 to 8.00 | 7.00 to 8.00 | 7.00 to 8.00 | Cc1c(F)cccc1-c1ccc2nc(NC(=O)C3CCC3)cn2c1 [Example 76, N-(6-(3-fluoro-2-methylphenyl)imidazo[1,2-a]pyridin-2-yl)cyclobutanecarboxamide] |
| 7.00 to 8.00 | 6.00 to 7.00 | 7.00 to 8.00 | Cc1c(F)cccc1-c1ccc2nc(NC(=O)C3CC(F)C3)cn2c1 (stereo not drawn) [Example 78, 3-fluoro-N-(6-(3-fluoro-2-methylphenyl)imidazo[1,2-a]pyridin-2-yl)cyclobutanecarboxamide] |
| 6.00 to 7.00 | 6.00 to 7.00 | 7.00 to 8.00 | Cc1c(F)cccc1-c1ccc2nc(NC(=O)C3CC(F)(F)C3)cn2c1 [Example 79, 3,3-difluoro-N-(6-(3-fluoro-2-methylphenyl)imidazo[1,2-a]pyridin-2-yl)cyclobutanecarboxamide] |
| < 6.00 | < 6.00 | < 6.00 | CNCc1c(F)cccc1-c1ccc2nc(NC(=O)[C@@H]3C[C@@H]3F)cn2c1 [Example 80, (1S,2S)-2-fluoro-N-(6-(3-fluoro-2-((methylamino)methyl)phenyl)imidazo[1,2-a]pyridin-2-yl)cyclopropanecarboxamide] |
| < 6.00 | < 6.00 | < 6.00 | CC(C)NCc1c(F)cccc1-c1ccc2nc(NC(=O)[C@@H]3C[C@@H]3F)cn2c1 [Example 81, (1S,2S)-2-fluoro-N-(6-(3-fluoro-2-((isopropylamino)methyl)phenyl)imidazo[1,2-a]pyridin-2-yl)cyclopropanecarboxamide] |
| 6.00 to 7.00 | < 6.00 | 7.00 to 8.00 | COCCOCc1c(F)cccc1-c1ccc2nc(NC(=O)[C@@H]3C[C@@H]3F)cn2c1 [Example 82, (1S,2S)-2-fluoro-N-(6-(3-fluoro-2-((2-methoxyethoxy)methyl)phenyl)imidazo[1,2-a]pyridin-2-yl)cyclopropanecarboxamide] |
| < 6.00 | 6.00 to 7.00 | 6.00 to 7.00 | O=C(Nc1cn2cc(-c3cccc(F)c3COCCO)ccc2n1)[C@@H]1C[C@@H]1F [Example 83, (1S,2S)-2-fluoro-N-(6-(3-fluoro-2-((2-hydroxyethoxy)methyl)phenyl)imidazo[1,2-a]pyridin-2-yl)cyclopropanecarboxamide] |
| < 6.00 | < 6.00 | < 6.00 | CN(C)Cc1c(F)cccc1-c1ccc2nc(NC(=O)[C@@H]3C[C@@H]3F)cn2c1 [Example 84, (1S,2S)—N-(6-(2-((dimethylamino)methyl)-3-fluorophenyl)imidazo[1,2-a]pyridin-2-yl)-2-fluorocyclopropanecarboxamide] |
